From ChEMBL document CHEMBL2216751, “PI3Kδ and PI3Kγ as targets for autoimmune and inflammatory diseases” (J Med Chem, 2012)
One block for each compound: values may come before it.

Experiments:
[1] = biological target: T1, Phosphatidylinositol 4,5-bisphosphate 3-kinase catalytic subunit delta isoform (Homo sapiens, UniProt O00329)
T1 sequence (O00329 whole entry): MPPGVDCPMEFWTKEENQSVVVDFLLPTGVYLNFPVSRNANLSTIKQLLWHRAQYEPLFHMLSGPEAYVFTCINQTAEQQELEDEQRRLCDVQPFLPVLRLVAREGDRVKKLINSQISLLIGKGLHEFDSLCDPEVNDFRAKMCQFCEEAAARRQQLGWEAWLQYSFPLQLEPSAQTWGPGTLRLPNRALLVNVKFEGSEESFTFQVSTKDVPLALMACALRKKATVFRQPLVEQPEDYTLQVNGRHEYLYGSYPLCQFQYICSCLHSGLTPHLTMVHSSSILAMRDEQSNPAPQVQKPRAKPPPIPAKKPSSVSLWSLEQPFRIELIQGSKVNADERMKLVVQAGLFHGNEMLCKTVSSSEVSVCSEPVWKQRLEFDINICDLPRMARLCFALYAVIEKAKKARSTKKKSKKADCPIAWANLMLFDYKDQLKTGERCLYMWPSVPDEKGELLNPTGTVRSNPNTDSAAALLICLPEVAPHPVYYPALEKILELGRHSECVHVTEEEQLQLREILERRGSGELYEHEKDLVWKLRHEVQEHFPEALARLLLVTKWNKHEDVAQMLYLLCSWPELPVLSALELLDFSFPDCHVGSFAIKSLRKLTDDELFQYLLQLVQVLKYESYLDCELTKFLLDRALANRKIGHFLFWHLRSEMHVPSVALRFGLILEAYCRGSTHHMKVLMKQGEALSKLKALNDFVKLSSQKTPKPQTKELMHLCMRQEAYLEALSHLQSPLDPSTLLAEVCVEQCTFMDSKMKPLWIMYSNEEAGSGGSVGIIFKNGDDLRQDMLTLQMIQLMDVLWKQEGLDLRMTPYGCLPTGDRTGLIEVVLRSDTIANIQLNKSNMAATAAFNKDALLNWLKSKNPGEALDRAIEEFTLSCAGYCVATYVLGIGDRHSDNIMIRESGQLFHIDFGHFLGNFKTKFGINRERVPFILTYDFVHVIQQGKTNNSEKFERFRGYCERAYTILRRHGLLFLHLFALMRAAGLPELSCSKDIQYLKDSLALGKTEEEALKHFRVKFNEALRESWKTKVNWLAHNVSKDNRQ

Rattus norvegicus [2] = test: Antiinflammatory activity in rat assessed as inhibition of Streptococcal cell wall-induced rat paw edema; type: functional; conditions: read-out: ID50 (the source's name)
Rattus norvegicus [3] = test: Antiinflammatory activity in rat assessed as inhibition of Streptococcal cell wall-induced rat paw edema at 30 mg/kg; type: functional
[4] = biological target: Phosphatidylinositol 4,5-bisphosphate 3-kinase catalytic subunit beta isoform (Homo sapiens) (UniProt P42338); test: Inhibition of PI3Kbeta at 1 uM
Phosphatidylinositol 4,5-bisphosphate 3-kinase catalytic subunit beta isoform (Homo sapiens), sequence (P42338 whole entry, looked up, canonical isoform): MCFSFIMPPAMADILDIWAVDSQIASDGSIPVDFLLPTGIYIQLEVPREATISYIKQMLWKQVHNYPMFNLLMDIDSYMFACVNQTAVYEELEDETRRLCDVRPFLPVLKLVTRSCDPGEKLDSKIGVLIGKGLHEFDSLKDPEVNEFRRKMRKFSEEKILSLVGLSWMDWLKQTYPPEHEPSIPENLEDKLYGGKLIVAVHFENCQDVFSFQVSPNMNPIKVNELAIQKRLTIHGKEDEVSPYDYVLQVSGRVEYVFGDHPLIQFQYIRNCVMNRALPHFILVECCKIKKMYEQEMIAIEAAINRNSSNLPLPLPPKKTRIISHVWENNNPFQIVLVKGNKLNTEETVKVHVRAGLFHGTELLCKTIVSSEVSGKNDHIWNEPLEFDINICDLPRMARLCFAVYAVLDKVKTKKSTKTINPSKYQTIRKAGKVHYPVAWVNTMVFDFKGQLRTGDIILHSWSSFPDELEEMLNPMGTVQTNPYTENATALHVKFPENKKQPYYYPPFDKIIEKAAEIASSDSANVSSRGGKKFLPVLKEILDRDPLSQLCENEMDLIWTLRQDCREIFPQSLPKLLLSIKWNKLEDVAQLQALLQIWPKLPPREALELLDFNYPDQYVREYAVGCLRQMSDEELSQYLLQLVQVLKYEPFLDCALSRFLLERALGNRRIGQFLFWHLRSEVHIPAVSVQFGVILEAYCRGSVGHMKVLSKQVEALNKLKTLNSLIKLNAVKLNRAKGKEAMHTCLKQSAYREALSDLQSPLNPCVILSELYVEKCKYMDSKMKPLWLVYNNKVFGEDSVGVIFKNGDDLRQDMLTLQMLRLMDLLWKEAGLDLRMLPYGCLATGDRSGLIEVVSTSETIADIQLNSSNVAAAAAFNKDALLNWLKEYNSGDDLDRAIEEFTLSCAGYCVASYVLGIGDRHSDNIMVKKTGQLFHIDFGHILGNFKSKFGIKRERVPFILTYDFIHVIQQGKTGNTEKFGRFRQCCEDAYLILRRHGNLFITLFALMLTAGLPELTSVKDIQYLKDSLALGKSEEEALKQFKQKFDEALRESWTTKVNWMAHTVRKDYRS

[5] = biological target: Phosphatidylinositol 4,5-bisphosphate 3-kinase catalytic subunit alpha isoform (Homo sapiens) (UniProt P42336); test: Inhibition of PI3Kalpha at 1 uM
Phosphatidylinositol 4,5-bisphosphate 3-kinase catalytic subunit alpha isoform (Homo sapiens), sequence (P42336 whole entry, canonical isoform): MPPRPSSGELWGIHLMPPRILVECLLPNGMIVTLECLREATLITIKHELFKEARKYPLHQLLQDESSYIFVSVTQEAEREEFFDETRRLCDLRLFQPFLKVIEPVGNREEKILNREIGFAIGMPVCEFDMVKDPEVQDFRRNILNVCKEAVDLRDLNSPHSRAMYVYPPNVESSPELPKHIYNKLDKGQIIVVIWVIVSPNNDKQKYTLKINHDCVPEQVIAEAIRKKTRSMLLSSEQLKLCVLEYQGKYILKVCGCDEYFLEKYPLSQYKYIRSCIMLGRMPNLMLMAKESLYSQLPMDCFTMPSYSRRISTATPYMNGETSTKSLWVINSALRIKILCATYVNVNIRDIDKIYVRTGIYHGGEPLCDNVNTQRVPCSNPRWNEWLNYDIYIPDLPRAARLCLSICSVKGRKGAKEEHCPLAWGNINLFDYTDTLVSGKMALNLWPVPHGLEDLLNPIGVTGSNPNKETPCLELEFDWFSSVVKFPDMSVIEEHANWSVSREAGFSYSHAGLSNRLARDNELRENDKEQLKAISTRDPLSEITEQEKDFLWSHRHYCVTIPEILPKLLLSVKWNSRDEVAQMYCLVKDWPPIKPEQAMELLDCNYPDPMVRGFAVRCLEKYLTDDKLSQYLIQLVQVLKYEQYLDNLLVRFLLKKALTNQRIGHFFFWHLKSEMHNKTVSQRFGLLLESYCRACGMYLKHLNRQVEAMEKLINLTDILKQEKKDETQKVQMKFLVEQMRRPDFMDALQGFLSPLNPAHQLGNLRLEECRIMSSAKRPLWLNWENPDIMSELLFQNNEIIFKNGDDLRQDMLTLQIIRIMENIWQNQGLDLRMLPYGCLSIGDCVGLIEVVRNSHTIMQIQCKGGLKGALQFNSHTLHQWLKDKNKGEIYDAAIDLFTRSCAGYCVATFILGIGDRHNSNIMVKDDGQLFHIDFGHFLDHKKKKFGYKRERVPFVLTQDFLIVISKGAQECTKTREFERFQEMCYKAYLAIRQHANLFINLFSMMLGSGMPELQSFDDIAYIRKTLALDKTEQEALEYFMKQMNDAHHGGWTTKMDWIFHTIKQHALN

[6] = biological target: T2, Phosphatidylinositol 4,5-bisphosphate 3-kinase catalytic subunit gamma isoform (Homo sapiens, UniProt P48736); test: Inhibition of PI3Kgamma at 1 uM
Target sequence in this assay (P48736 whole entry, looked up, canonical isoform): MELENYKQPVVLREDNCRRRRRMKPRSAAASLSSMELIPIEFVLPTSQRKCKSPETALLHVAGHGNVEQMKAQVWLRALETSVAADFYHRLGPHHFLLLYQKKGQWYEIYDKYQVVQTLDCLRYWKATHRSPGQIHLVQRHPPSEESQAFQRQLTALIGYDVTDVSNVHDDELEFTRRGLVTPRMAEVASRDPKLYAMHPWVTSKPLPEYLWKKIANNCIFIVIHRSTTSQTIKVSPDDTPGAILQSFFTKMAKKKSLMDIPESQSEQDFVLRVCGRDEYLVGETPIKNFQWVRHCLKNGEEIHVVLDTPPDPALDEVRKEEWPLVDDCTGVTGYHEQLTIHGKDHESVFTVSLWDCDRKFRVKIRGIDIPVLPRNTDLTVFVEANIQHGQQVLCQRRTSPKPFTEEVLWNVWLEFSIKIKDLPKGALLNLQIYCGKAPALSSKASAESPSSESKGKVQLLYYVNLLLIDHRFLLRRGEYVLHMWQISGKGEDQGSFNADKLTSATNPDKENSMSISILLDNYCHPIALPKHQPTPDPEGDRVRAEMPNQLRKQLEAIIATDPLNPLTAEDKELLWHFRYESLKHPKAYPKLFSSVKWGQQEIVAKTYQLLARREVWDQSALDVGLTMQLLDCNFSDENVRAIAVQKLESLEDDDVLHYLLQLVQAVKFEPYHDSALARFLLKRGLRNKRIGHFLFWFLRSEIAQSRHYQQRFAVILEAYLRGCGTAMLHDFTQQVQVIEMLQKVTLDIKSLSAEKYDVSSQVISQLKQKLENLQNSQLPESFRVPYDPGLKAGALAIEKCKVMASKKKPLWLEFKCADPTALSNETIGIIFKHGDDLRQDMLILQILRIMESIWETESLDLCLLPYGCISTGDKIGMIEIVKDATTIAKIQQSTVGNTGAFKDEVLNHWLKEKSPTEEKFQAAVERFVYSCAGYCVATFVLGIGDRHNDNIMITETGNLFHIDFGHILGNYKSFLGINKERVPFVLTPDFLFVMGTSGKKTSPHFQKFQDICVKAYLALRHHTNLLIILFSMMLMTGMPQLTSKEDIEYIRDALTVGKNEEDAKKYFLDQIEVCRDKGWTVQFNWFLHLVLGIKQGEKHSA

[7] = biological target: T2, Phosphatidylinositol 4,5-bisphosphate 3-kinase catalytic subunit gamma isoform; test: Inhibition of PI3Kgamma-mediated Akt phosphorylation in T cells by flow cytometry; type: cell-based, T-cell
Target sequence in this assay (P48736 whole entry, canonical isoform): as the sequence (P48736 whole entry, looked up, canonical isoform) above

[8] = biological target: T1, Phosphatidylinositol 4,5-bisphosphate 3-kinase catalytic subunit delta isoform; test: Inhibition of PI3Kdelta by cell-based assay
[9] = biological target: T1, Phosphatidylinositol 4,5-bisphosphate 3-kinase catalytic subunit delta isoform; test: Inhibition of PI3Kdelta in human whole blood assessed as inhibition of CD69 production in B lymphocyte by immunoassay
Mus musculus = test: Antiinflammatory activity in LPS-induced COPD BALB/c mouse model assessed as reduction in pulmonary neutrophilia at 0.3 mg/kg, ip qd; type: functional; design: scale not given: the % may be the effect or the level left; conditions: route intraperitoneal
[10] = biological target: T3, Phosphatidylinositol 4,5-bisphosphate 3-kinase catalytic subunit delta isoform (Homo sapiens) (UniProt O00329); test: Inhibition of PI3Kdelta-mediated Akt phosphorylation at 10 uM by cell-based assay
T3 sequence (whole entry): T1 sequence (O00329 whole entry)

[11] = biological target: T1, Phosphatidylinositol 4,5-bisphosphate 3-kinase catalytic subunit delta isoform; test: Inhibition of PI3Kdelta-mediated AKT phosphorylation in human Ramos cells by ELISA; type: cell-based

SMILES: O=C(Nc1nn[nH]n1)c1cnc(N2CCOCC2)nc1OC1CCCCCC1
IC50 ([1]; read-out: IC50): 197 nM | ED50 (Rattus norvegicus [2]): 16.3 mg/kg | inhibition in vivo at 30 mg/kg (Rattus norvegicus [3]): 52%

SMILES: CC(c1oc2ccccc2c(=O)c1-c1cccc(F)c1)n1cnc2c(N)ncnc21 (stereo not drawn)
IC50 ([1]; read-out: IC50): < 250 nM | inhibition [4]: < 25% | inhibition [5]: < 25% | inhibition [6]: < 25%

SMILES: O=C(NCC(=O)N1CCCC1)Nc1nc2ccc(-c3cncc(C(F)(F)F)c3)cn2n1
IC50 ([1]; read-out: IC50): < 100 nM

SMILES: CN(C)C1CCN(Cc2cc3nc(-c4cccc5[nH]ccc45)nc(N4CCOCC4)c3s2)CC1
Ki [1]: 4.9 nM | IC50 [9]: 17 nM

SMILES: Clc1ccc(-c2nc(N3CCOCC3)sc2-c2nnc[nH]2)c(Cl)c1
IC50 ([1]; read-out: IC50): < 100 nM

SMILES: C[C@@H]1C[C@H]2[C@@H]3CCC4=CC(=O)C=C[C@]4(C)[C@@]3(F)[C@@H](O)C[C@]2(C)[C@@]1(O)C(=O)CO [DEXAMETHASONE]
Activity (Mus musculus): 70%

SMILES: CCOC(=O)CCNC(=O)Nc1nc2c(s1)CN(c1cnc(Cl)c(OC)c1)CC2
Ki [1]: 3 nM

SMILES: C[C@@H](c1nc2ccsc2c(=O)n1-c1ccccc1)n1cnc2c(N)ncnc21
IC50 ([1]; read-out: IC50): 40 nM

SMILES: COc1ccc(-c2ccc3c(n2)N(C2=NC(=O)C(C)(C)S2)CCO3)cc1OC
IC50 ([1]; read-out: IC50): 27 nM

SMILES: CN(C)CCCOc1cccc2c1nc(C(F)F)n2-c1nc(OC2CCN(C(=O)CCl)CC2)nc(N2CCOCC2)n1
IC50 ([1]; read-out: IC50): > 100 nM

SMILES: Cc1oc2ncn(CC(C)C)c(=O)c2c1C(=O)NCc1ccccc1
IC50 ([1]; read-out: IC50): 2100 nM

Second part, the compound after the results:

pIC50 [1]: >= 5 | IC50 [7]: ≤ 1000 nM
SMILES: CN1CCOC(C(=O)Nc2cc(-c3cccc4[nH]ccc34)cc3[nH]ncc23)C1 (stereo not drawn)

IC50 ([1]; read-out: IC50): < 100 nM
SMILES: CS(=O)(=O)N1CCN(Cc2cc3nc(-c4c(F)ccc5[nH]ccc45)nc(N4CCOCC4)c3s2)CC1

IC50 ([1]; read-out: IC50): 12 nM
SMILES: Nc1ncc(-c2ccc(Cl)c(S(=O)(=O)Nc3ccccc3)c2)nc1C(=O)c1cccnc1

pIC50 [1]: >= 5
SMILES: Cc1nc(C(=O)Nc2cc(-c3cnc4[nH]nc(S(C)(=O)=O)c4c3)cc3[nH]ncc23)cs1

IC50 ([1]; read-out: IC50): < 50 nM
SMILES: CC(Nc1ncnc2[nH]cnc12)c1c(C#N)c2ccc(Cl)cc2n1-c1cccc(F)c1 (stereo not drawn)

IC50 ([1]; read-out: IC50): < 100 nM | IC50 [8]: < 100 nM
SMILES: Cc1ccccc1-n1c(Cn2nc(-c3cc(O)cc(F)c3)c3c(N)ncnc32)nc2scc(C)c2c1=O

IC50 ([1]; read-out: pIC50 (converted)): < 100 nM
SMILES: CC(C)N1CCN(Cc2cnc(-c3cc(-c4cccc5[nH]ccc45)cc4[nH]ncc34)o2)CC1 [NEMIRALISIB]

Ki [1]: 2.26 nM
SMILES: C[C@H](Nc1ncnc(N)c1C#N)c1nc2ccc(F)cc2c(NCCS(C)(=O)=O)c1-c1ccccc1

IC50 ([1]; read-out: pIC50 (converted)): < 100 nM
SMILES: COc1ccc(-c2cc(-c3ncc(CN4C[C@@H](C)O[C@@H](C)C4)o3)c3cn[nH]c3c2)cc1NS(C)(=O)=O

pIC50 [1]: >= 5 | IC50 [7]: ≤ 1000 nM
SMILES: Cc1nc(C(=O)Nc2cc(-c3ccnc4[nH]ccc34)cc3[nH]ncc23)cs1

IC50 ([1]; read-out: IC50): < 100 nM
SMILES: CC(=O)Nc1ccc(C(=O)NC2=Nc3cc(N4CCOCC4)ccc3C3=NCCN23)cn1

IC50 ([1]; read-out: IC50): < 100 nM
SMILES: CNc1nc(C)c2cc(-c3cc(O)cc(F)c3)ccc2n1

IC50 ([1]; read-out: IC50): 16 nM
SMILES: Cc1nc(NC(=O)NCCC(=O)OC(C)(C)C)sc1-c1ccc(S(C)(=O)=O)c(F)c1

inhibition [10]: > 95%
SMILES: CC(C)(Oc1cccc2[nH]c(-c3nccc(-c4cncc(S(N)(=O)=O)c4)n3)cc12)C(=O)O

IC50 ([1]; read-out: IC50): < 200 nM | IC50 [11]: < 500 nM
SMILES: Cc1cccn2c(C(C)Nc3ncnc4[nH]cnc34)c(-c3cc(F)cc(F)c3)nc12 (stereo not drawn)

IC50 ([1]; read-out: IC50): < 100 nM | IC50 [11]: < 100 nM
SMILES: CC(Nc1ncnc2[nH]cnc12)c1cc(Cl)c2cncn2c1-c1cccc(F)c1 (stereo not drawn)
